# Results published in ChEMBL document CHEMBL3507680, “University of Dundee, Gates Library screen for HepG2 cell viability”.
# Experiment: Human HepG2 cell viability assay in 384 well format
# Assay type: toxicity, cell-based
# Set-up: dose 125 nL, time 70.5 hour; concentration not given beside the values
# Conditions: HepG2 cells, read-out: Inhibition
row,SMILES,cytotoxicity at 70.5 h
1,c1ccc(-c2nc(CCNc3nnc(C4CCC4)o3)no2)cc1,15.9%
2,CC(C)c1nn(C)c(N(C)C)c1CNCC(O)COc1ccccc1 (configuration not stated),-3.95%
3,CNC(=O)c1ccc(S(=O)(=O)NCc2cccnc2N(C)C)cc1,-6.39%
4,Cc1ccc(N2CCC(Nc3ccc4nnc(C)n4n3)CC2)nc1,-1.55%
5,Cc1cc(CNc2cccc(C(=O)N(C)c3ccccc3)c2)no1,-0.804%
6,Cn1cccc1-c1cc(C(=O)N2CCCCC2c2ccc(F)cc2)[nH]n1 (configuration not stated),-3.93%
7,CC(C)(C)CN1CC(O)CN(C(=O)c2cccc(C(F)(F)F)c2)CC1=O (configuration not stated),-7.28%
8,CC(C)NCc1cc2n(n1)CCN(C1CCCCC1)C2,9.14%
9,CCC(C)N(Cc1cccnc1)Cc1cc2c(cc1OC)OCO2 (configuration not stated),0.778%
10,O=C(c1cnc(C2CC2)s1)N1CCCCC1Cn1cccn1 (configuration not stated),0.664%
11,Cc1nn(C)c(N(C)C)c1CNCCNS(C)(=O)=O,-7.58%
12,CCn1nc(C)c2nc(C(C)C)nc(NCCOC)c21,-5.06%
13,CN(Cc1nc(-c2ccccc2)c[nH]1)C(=O)NCC(=O)NC(C)(C)C,-5.84%
14,COc1c(CNCc2cccc(CN3CCOCC3)c2)c(C)nn1C,-10.7%
15,O=C1COC2(CCN(Cc3nccs3)CC2)CN1CC1CC1,6.87%
16,COC1CCN(C(=O)CC(C)(C)C)CC(=O)N(C)c2ccccc21 (configuration not stated),6.54%
17,Cc1ccsc1CNC(=O)NC1CCCc2c1cnn2CCO (configuration not stated),-6.7%
18,CCc1nc(CCNC(=O)C2CCOC2)sc1C (configuration not stated),-2.78%
19,NC(=O)C1CCN(CC(=O)N(Cc2ccccc2)Cc2nccs2)CC1,-7.45%

row,SMILES,cytotoxicity at 70.5 h
1,CCN(C)c1ncnc2c1CCN(C(=O)c1ccoc1C)CC2,-10.9%
2,COc1cccc2ccc(CN3CCN(c4ccncc4)CC3)nc12,-9.89%
3,COCCOCC(=O)N1CCC2(CCCN(C3CCOCC3)C2=O)C1 (configuration not stated),11.4%
4,CCC1(CNC(=O)NC(c2nnc3n2CCC3)C(C)C)CCC1 (configuration not stated),35.2%
5,Cc1ccoc1-c1nnc(CN2CCn3c(C)nnc3C2)o1,-0.634%
6,CN(C)CC1CN(Cc2nnc(C(C)(C)C)o2)CCO1 (configuration not stated),11.9%
7,CC(C)(C)c1cn(C[C@H]2CC3CCN2C[C@@H]3C(=O)N2CCOCC2)nn1 (some centres not stated),2.28%
8,CC1CN(C)CCN1C(=O)Cc1cc(Cl)c2c(c1)OCCO2 (configuration not stated),-6.51%
9,CCc1cc(CN2CCC(CCC(=O)Nc3ccccc3Cl)CC2)on1,-0.0329%
10,Cn1cc(-c2c(C#N)c(N)nc3c2CCc2[nH]ccc2-3)cc1C#N,16.7%
11,CCCc1nc(CN2CCN(Cc3noc(CCC)n3)CC2)no1,11.4%
12,c1ccc(CCCN2CCN(CCn3cncn3)CC2)cc1,-3.65%
13,CN(CC1CC1)C(=O)CN1CCCC1c1cnn(C)c1 (configuration not stated),1.65%
14,COc1cccc(OCC(=O)NS(=O)(=O)c2ccc(C)s2)c1,14%
15,CCCN1CCC(NC(=O)c2ccc(F)cc2I)CC1,-6.74%
16,Cc1ccc(CN2CCC3(CCC3NS(=O)(=O)c3ccccc3)CC2)o1 (configuration not stated),8.23%
17,Cc1ccc(NC(=O)CNC(C)Cc2ccsc2)cc1F (configuration not stated),-8.47%
18,CC(=O)N1CCC(C(=O)N2CCOC(CC3CCCCC3)C2)CC1 (configuration not stated),24.3%
19,COc1ccccc1C(C)CC(=O)N1CCCS1(=O)=O (configuration not stated),-5.37%

row,SMILES,cytotoxicity at 70.5 h
1,CCOC[C@@]12CCC[C@@H]1CN(C(=O)COc1ccccc1OC)C2,-8.07%
2,O=C1CC2(CCN(CC3CC3)C2)CN1c1ccc2c(c1)OCO2 (configuration not stated),3.77%
3,COCc1ncc(CN2C[C@@H](C(=O)O)[C@H](C(C)C)C2)cn1,9.21%
4,CCO[C@@H]1CO[C@@]2(CCN(Cc3ccc4c(c3)OCO4)C2)C1,-17.3%
5,Cc1cc(C(=O)NC(C)Cc2ccc(N(C)C)cc2)n(C)n1 (configuration not stated),-1.34%
6,CC(=O)N1CCN(C(=O)C[C@@H]2C[C@@H](C(C)C)[C@H](CC#N)C=C2C)CC1,0.119%
7,CC(=O)N1C[C@H]2CNC[C@@]2(C(=O)NCCNc2ccncc2C)C1,-0.521%
8,COc1ccccc1N1CCN(C(=O)CCc2nncn2C)C(C)C1 (configuration not stated),17.3%
9,Cc1ccc(CNC(=O)c2ccc(CNS(C)(=O)=O)o2)cc1F,17.8%
10,CCC(C)C(=O)NCCCn1nc(C)cc1C (configuration not stated),-13.2%
11,CN1N=C(C(=O)N2CCCC(n3cccn3)C2)CCC1=O (configuration not stated),-3.66%
12,COc1ccc2[nH]c(C[C@@H]3C[C@@H](C(C)C)[C@H](CN(C)C)C=C3C)nc2c1,-3.19%
13,COc1cccc(CN(C)C(C)c2ccon2)c1OCCn1ccnc1 (configuration not stated),-19.9%
14,Cc1ccc(C(N)c2cccs2)cc1 (configuration not stated),31.8%
15,COCCN(C)c1nc(-c2ccncc2)nc2c1CCN(C(C)=O)C2,-7.41%
16,CCOCC(O)CN1CCN(C(=O)c2ccc(C)nc2)CC1 (configuration not stated),0.688%
17,Cc1cnn(C2(C(=O)O)CCN(Cc3oc4ccccc4c3C)CC2)c1,-8.33%
18,Cc1cc(C(=O)NCc2cccnc2N2CCCC(O)C2)[nH]n1 (configuration not stated),-16.1%
19,Cc1cc(C(=O)N2C[C@H]3CCC[C@@]3(CO)C2)c2ccc(F)cc2n1,-1.1%
